Data as given in ChEMBL document CHEMBL1151282, “Flavonoids and benzene derivatives from the flowers and fruit of Tetrapanax papyriferus” (J Nat Prod, 2005).

Experiment: Toxicity in brine shrimp after 24 hrs
Type: organism-based
Conditions: artemia, in vivo

In order of rising LC50 at 24 h:
1. C[C@@H]1O[C@@H](Oc2cc(O)c3c(=O)c(O)c(-c4ccc(O)cc4)oc3c2)[C@H](OC(=O)/C=C/c2ccc(O)cc2)[C@H](OC(=O)/C=C/c2ccc(O)cc2)[C@H]1O  400 µM
2. C[C@@H]1O[C@@H](Oc2cc(O)c3c(=O)c(O)c(-c4ccc(O)cc4)oc3c2)[C@H](OC(=O)/C=C/c2ccc(O)cc2)[C@H](O)[C@H]1O  570 µM
3. CC(=O)Oc1ccc(-c2oc3cc(OC(C)=O)cc(O)c3c(=O)c2OC(C)=O)cc1  2210 µM
